Experimental data as given in ChEMBL document CHEMBL1201862, “PubChem BioAssay data set” (2004).
Calls of active or inactive are those of the source.

Experiments:
[1] = target: T1, RNA-binding protein pos-1 (Caenorhabditis elegans, UniProt G5EF15); assay: disruptors of C. elegans POS-1 RNA interaction – biochemical, fluorescence polarization, dose response (AID 1964);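 also: purified POS-1 fused to maltose binding protein made in E. coli; potency of compounds blocking POS-1 binding to fluorescent RNA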
T1 sequence (G5EF15 whole entry): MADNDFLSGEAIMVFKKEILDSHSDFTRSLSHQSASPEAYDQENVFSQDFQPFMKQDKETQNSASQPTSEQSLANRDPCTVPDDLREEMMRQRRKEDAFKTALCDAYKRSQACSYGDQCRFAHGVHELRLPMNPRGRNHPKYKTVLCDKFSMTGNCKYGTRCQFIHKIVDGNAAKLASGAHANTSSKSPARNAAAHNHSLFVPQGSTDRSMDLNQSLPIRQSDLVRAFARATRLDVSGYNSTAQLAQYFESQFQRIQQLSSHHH

[2] = target: T2, Endoribonuclease toxin MazF (Escherichia coli K-12, UniProt P0AE70); assay: MazEF toxin-antitoxin RNase activation – biochemical, fluorescence, single-stranded RNA substrate, SAR follow-up (AID 588603); format: functional
T2 sequence (P0AE70 whole entry): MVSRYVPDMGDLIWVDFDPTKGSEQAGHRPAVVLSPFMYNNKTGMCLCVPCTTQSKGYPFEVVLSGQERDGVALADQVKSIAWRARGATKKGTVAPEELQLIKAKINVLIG

Genome polyprotein = Genome polyprotein (dengue virus type 2, UniProt P29990); assay: flavivirus cap methylation enzyme inhibition – biochemical, confirmation dose response, primary screen (AID 588689); format: functional
Genome polyprotein, sequence (P29990 2492-3391 limits assumed): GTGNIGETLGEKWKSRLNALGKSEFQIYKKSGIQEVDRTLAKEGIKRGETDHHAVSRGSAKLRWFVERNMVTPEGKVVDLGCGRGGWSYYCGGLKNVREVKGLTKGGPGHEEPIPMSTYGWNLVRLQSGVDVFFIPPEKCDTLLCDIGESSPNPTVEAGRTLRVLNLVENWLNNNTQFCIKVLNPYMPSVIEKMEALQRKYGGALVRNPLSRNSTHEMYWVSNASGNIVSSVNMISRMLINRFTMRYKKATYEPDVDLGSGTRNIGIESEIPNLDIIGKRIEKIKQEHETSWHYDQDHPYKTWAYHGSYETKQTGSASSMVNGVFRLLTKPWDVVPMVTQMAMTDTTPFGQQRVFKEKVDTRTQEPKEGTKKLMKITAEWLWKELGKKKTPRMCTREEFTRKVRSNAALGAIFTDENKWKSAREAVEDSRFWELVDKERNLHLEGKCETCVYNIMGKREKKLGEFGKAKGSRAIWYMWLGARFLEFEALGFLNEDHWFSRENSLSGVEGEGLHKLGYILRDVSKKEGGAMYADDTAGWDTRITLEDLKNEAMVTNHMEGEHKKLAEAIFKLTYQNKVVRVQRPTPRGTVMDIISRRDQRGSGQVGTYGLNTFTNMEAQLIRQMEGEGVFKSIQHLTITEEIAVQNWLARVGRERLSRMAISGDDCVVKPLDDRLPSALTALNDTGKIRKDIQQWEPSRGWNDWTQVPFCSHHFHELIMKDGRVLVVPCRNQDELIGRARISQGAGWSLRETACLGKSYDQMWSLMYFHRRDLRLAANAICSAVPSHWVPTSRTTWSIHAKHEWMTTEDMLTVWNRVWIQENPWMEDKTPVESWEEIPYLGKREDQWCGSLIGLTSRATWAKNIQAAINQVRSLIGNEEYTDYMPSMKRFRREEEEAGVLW

MEF = assay: SAR analysis of small molecule cytotoxicity of MazEF TA System activators in embryonic fibroblast (MEF) cells. [Related pubchem assays (depositor defined):AID504720, AID504743]; format: functional; details: Mus musculus
[3] = target: T2, Endoribonuclease toxin MazF; assay: SAR analysis of small molecule activators of the MazEF TA System via a fluorescence-based single-stranded RNase assay counterscreen. [Related pubchem assays (depositor defined):AID504720, AID504743]; format: functional
[4] = target: T2, Endoribonuclease toxin MazF; assay: activation of MazEF endoribonuclease cleavage – biochemical, fluorescence, single-stranded RNA substrate, uHTS hits, dose response (AID 588481); format: functional
[5] = target: T2, Endoribonuclease toxin MazF; assay: substrate-only fluorescence increase artefacts – biochemical, single-stranded RNase substrate, counter-screen for MazEF activator project, dose response (AID 588502); format: functional
[6] = target: T3, Zinc finger protein mex-5 (Caenorhabditis elegans, UniProt Q9XUB2); assay: potency of MEX-5 RNA-binding blockers – biochemical, C. elegans, fluorescence polarization, dose response (AID 1960)
T3 sequence (Q9XUB2 whole entry): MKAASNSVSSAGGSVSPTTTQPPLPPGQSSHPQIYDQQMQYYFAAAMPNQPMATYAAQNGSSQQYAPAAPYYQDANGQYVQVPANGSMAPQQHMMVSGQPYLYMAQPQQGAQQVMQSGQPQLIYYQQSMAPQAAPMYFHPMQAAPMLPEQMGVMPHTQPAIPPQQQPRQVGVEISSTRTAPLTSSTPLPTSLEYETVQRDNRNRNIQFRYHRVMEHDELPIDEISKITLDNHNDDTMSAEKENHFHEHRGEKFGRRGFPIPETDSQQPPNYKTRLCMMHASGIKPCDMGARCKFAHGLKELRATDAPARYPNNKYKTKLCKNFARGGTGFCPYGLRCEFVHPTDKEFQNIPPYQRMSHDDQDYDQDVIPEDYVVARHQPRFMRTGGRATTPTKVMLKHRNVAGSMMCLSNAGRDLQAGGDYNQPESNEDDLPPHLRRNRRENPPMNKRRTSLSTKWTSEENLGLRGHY

[7] = reduction of Shn3 3'UTR-driven luciferase in osteoblasts – cell-based, Clone20 osteoblasts, firefly luciferase, cherry-picked, dose response (AID 624132); format: functional;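 also: firefly luciferase luminescence from reporter carrying the Shn3 3'UTR in osteoblasts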
[8] = non-specific 3'UTR reporter inhibition in Clone20-Shn3RL – cell-based, Renilla luciferase, cherry-picked, counter-screen for Shn3 inhibitor project, dose response (AID 624133); format: functional
[9] = target: COUP transcription factor 2 (Homo sapiens, UniProt P24468); assay: Luminescence-based cell-based high throughput dose response assay to identify inhibitors of COUP-TFII (NR2F2).; format: functional;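 also: HEK293 cells transiently cotransfected with COUP-TFII expression vector and reporter; luciferase reporter luminescence driven by COUP-TFII from the pX2-168 reporter plasmid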
COUP transcription factor 2, sequence (P24468 whole entry): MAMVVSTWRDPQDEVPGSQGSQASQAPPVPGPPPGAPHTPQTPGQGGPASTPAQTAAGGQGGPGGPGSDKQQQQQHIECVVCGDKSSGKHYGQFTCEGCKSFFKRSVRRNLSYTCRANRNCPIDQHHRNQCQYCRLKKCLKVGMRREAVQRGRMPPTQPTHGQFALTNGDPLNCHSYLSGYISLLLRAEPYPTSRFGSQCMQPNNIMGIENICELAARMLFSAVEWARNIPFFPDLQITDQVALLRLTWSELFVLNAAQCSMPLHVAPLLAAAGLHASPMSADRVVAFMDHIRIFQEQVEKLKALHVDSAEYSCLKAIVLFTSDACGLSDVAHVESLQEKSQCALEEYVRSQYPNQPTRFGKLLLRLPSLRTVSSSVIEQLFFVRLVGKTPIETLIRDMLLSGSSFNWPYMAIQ

HEK293 = assay: EBV LMP1 TES2 canonical NF-kB signalling blockers – cell-based, HEK293, luciferase, cherry-pick, dose response (AID 588343); format: functional; details: Homo sapiens
[10] = loss of viability in HepG2 cells – cell-based, CellTiter-Glo, cherry-picked, cytotoxicity control for Shn3 inhibitor project, dose response (AID 624134); format: functional
[11] = target: Latent membrane protein 1 (Human herpesvirus 4 (strain B95-8), UniProt P03230); assay: LMP1 TES1 pathway selectivity over dsRED control – imaging, HEK293T, dual-color eGFP/dsRED, cherry-picks, selectivity assay for LMP1 NF-kB inhibitor project, dose response (AID 588398); format: functional, cell-based
Latent membrane protein 1, sequence (P03230 whole entry): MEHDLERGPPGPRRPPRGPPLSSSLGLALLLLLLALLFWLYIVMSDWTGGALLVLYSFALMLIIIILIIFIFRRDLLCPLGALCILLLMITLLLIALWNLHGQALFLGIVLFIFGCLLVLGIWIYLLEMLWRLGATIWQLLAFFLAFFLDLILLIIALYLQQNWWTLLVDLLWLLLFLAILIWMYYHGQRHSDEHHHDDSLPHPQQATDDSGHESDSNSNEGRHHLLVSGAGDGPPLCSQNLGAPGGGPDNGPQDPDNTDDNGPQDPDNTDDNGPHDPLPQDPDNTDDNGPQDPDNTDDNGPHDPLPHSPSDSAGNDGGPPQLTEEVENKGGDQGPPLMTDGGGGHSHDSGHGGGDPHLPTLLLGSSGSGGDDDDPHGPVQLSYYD

| Compound | EC50 [1] | EC50 [2] | IC50 (Genome polyprotein) | CC50 (MEF) | EC50 [3] | EC50 [4] | EC50 [5] | EC50 [6] | AC50 [7] | AC50 [8] | IC50 [9] | AC50 (HEK293) | AC50 [10] | AC50 [11] |
| --- | --- | --- | --- | --- | --- | --- | --- | --- | --- | --- | --- | --- | --- | --- |
| C=CCOc1cccc(C2C(C(=O)c3ccc(C)o3)=C(O)C(=O)N2c2nccs2)c1 (centres undefined) | > 300 µM (inconclusive) | 22.3 µM (inactive) | 5.64 µM (active) | > 99 µM (inactive) | 44.5 µM (inactive) | 11.4 µM (active) | > 99 µM (inactive) | 0.851 µM (active) | – | – | – | – | – | – |
| O=C(NC1CCCCCCC1)c1cc(COc2ccc3ncccc3c2)on1 | – | – | – | – | – | – | – | – | 1.06 µM (active) | 11.8 µM (active) | 4.41 µM (active) | 39.6 µM (active) | 2.97 µM (active) | 60.1 µM (active) |
